The results in this text go back to patent US20130071897A1, “METHOD FOR CONTROLLING UNDESIRABLE BYPRODUCTS FORMATION CAUSED BY CONTAMINATING ORGANISMS IN THE PRODUCTION OF ETHANOL FROM SYNGAS” (COSKATA, INC., priority 2011, published 2013).

Where “and” joins values, the source holds several entries; their conditions need not be identical. Identical values can stand only once.

Common to all, as to type: cell-based
One assay deals with C. autoethanogenum. Put plainly: Balch tube batch growth of homoacetogen C. autoethanogenum on fructose, optical density. As to conditions: added 21 h after inoculation.
Assay [1] has as its system Clostridium tyrobutyricum. Kind of assay: Balch tube batch growth of strict butyrogen Clostridium tyrobutyricum on fructose, optical density. Particulars: added 21 h after inoculation.
The subject of assay [2] is Clostridium tyrobutyricum. Put plainly: Serum bottle batch fermentation of Clostridium tyrobutyricum on fructose, optical density. As to conditions: for O.D. Response: 5 mM, duplicates A and B. The procedure:
Ethyl 3-(trifluoromethyl)benzoate is evaluated in a series of batch fermentations to determine the growth response of butyrogens to the presence of this compound at varying concentrations. The batch fermentations are conducted by anoxically filling 100 mL serum bottles with 15 mL of media having the composition given in Tables 12 and 13. About 0.15 mL of a 50% w/w solution of fructose in water (final fructose concentration about 5 g/L) is provided in the bottles. Duplicate runs are conducted for each concentration.
(§1) Each bottle is inoculated with 1.5 mL of seed culture inoculum of the strict butyrogen Clostridium tyrobutyricum, which has an OD of about 0.40 (which upon a 10 times dilution provides a starting OD for the fermentation of about 0.04). The bottles are maintained at a temperature of 37° C. Two hours after inoculation of the bottles with the bacteria, the compound is added to different bottles as a solution in 50 μL of N-methylpyrrolidone in the amounts indicated in Table 15. The fermentation process is allowed to progress at 37° C. At selected intervals of time, bacterial growth is measured by reading the optical density (OD) of the fermentation liquid. Optical density is measured by anoxically removing an aliquot of fermentation liquid and adding it to a disposable cuvette. OD's ranging between 0.01 and 0.4 are measured directly, while OD's greater than 0.4 are measure after performing a 1/10 dilution with water.
In this example ethyl 4,4,4-trifluoro-3-(trifluoromethyl)crotonate and ethyl 3-trifluoromethyl-4-methoxybenzoate are evaluated by batch fermentation. The batch fermentations are conducted by anoxically filling 100 mL serum bottles with 15 mL of media having the composition given in Tables 12 and 13. About 0.15 mL of a 50% w/w solution of fructose in water (final fructose concentration about 5 g/L) is provided in the bottles. Duplicate runs are conducted for each concentration.
as §1, with “of about 0.42 (which upon” for “of about 0.40 (which upon”, “of about 0.042). The bottles” for “of about 0.04). The bottles”, “in Table 16 and 17. The fermentation” for “in Table 15. The fermentation”, “0.4 are measured after performing” for “0.4 are measure after performing”

For the compound `CCOC(=O)/C=C(\N)C(F)(F)F` [B, ethyl-3-amino-4,4,4-trifluorocrotonate], the “Optical density valuation of C. autoethanogenum” value in the assay with C. autoethanogenum (1 ppm(m)), with C. autoethanogenum (5 ppm(m)), in the assay with C. autoethanogenum (10 ppm(m)), in the assay with C. autoethanogenum (50 ppm(m)), with C. autoethanogenum (100 ppm(m)) and with C. autoethanogenum (500 ppm(m)) was “+ (bacterial growth to an OD of approximately 2 or above)” throughout. Moreover, the “Optical density valuation of C. autoethanogenum” value with C. autoethanogenum (1000 ppm(m)) is recorded as “+ (bacterial growth to an OD of approximately 2 or above)”; in the assay on C. autoethanogenum (5000 ppm(m)) it was “+/− (to an optical density in a range of 0.5 to 1.5)”; in the assay on C. autoethanogenum (10000 ppm(m)), “− (failure of bacterial growth to reach an optical density of approximately 0.5)”. The “Optical density valuation of C. tyrobutyricum” value in assay [1] (100 ppm(m)), in assay [1] (500 ppm(m)) and in assay [1] (1000 ppm(m)) was “+ (bacterial growth to an OD of approximately 1.8 or above)” in each case. Moreover, the “O.D. Response to Varying Inhibitor Concentrations” value in assay [2] (100 ppm, 22.5 Hours, added 25 h after inoculation) stood at 0.84; in assay [2] (100 ppm, 28.5 Hours) it was 1.48; in assay [2] (100 ppm, 43.5 Hours), 1.53; in assay [2] (250 ppm, 22.5 Hours, added 25 h after inoculation) it was 0.86; in assay [2] (250 ppm, 28.5 Hours), 1.87; in assay [2] (250 ppm, 43.5 Hours) it was 1.92. Also, the “O.D. Response to Varying Inhibitor Concentrations” value came out at 0.80 in assay [2] (500 ppm, 22.5 Hours, added 25 h after inoculation); 0.93 in assay [2] (500 ppm, 28.5 Hours); 1.00 in assay [2] (500 ppm, 43.5 Hours); 0.70 in assay [2] (1000 ppm, 22.5 Hours, added 25 h after inoculation); 0.77 in assay [2] (1000 ppm, 28.5 Hours); 0.78 in assay [2] (1000 ppm, 43.5 Hours).

For the compound `CCOC(=O)C=C(C(F)(F)F)C(F)(F)F` [Compound A, ethyl 4,4,4-trifluoro-3-(trifluoromethyl)crotonate], the “Optical density valuation of C. autoethanogenum” value in the assay with C. autoethanogenum (1 ppm(m)), with C. autoethanogenum (5 ppm(m)), with C. autoethanogenum (10 ppm(m)), in the assay on C. autoethanogenum (50 ppm(m)), in the assay on C. autoethanogenum (100 ppm(m)) and with C. autoethanogenum (500 ppm(m)) was “+ (bacterial growth to an OD of approximately 2 or above)” throughout. In addition, the “Optical density valuation of C. autoethanogenum” value with C. autoethanogenum (1000 ppm(m)) is recorded as “+ (bacterial growth to an OD of approximately 2 or above)”; with C. autoethanogenum (5000 ppm(m)), “− (failure of bacterial growth to reach an optical density of approximately 0.5)”; with C. autoethanogenum (10000 ppm(m)) it was “− (failure of bacterial growth to reach an optical density of approximately 0.5)”. Further, the “Optical density valuation of C. tyrobutyricum” value in assay [1] (100 ppm(m)) is “+ (bacterial growth to an OD of approximately 1.8 or above)”; in assay [1] (500 ppm(m)) it was “+/− (to an optical density in a range of 0.7 to 1.5)”; in assay [1] (1000 ppm(m)), “− (failure of bacterial growth to reach an optical density of approximately 0.7)”. The “O.D. Response” value in assay [2] (0 Hours, added 2 h after inoculation) was 0.42; in assay [2] (2 Hours, added 2 h after inoculation), 0.10; in assay [2] (4.5 Hours), 0.14 and 0.11; in assay [2] (6 Hours), 0.13; in assay [2] (24 Hours), 0.12.

In the case of `O=C(O)C=C(C(F)(F)F)C(F)(F)F` [D, 4,4,4-trifluoro-3-(trifluoromethyl)crotonic acid], the “Optical density valuation of C. autoethanogenum” value is “+ (bacterial growth to an OD of approximately 2 or above)” with C. autoethanogenum (10 ppm(m)); “+ (bacterial growth to an OD of approximately 2 or above)” in the assay with C. autoethanogenum (100 ppm(m)); “+ (bacterial growth to an OD of approximately 2 or above)” in the assay on C. autoethanogenum (500 ppm(m)); “+/− (to an optical density in a range of 0.5 to 1.5)” in the assay on C. autoethanogenum (1000 ppm(m)); “− (failure of bacterial growth to reach an optical density of approximately 0.5)” with C. autoethanogenum (5000 ppm(m)); “− (failure of bacterial growth to reach an optical density of approximately 0.5)” with C. autoethanogenum (10000 ppm(m)). The “Optical density valuation of C. tyrobutyricum” value in assay [1] (100 ppm(m)), in assay [1] (500 ppm(m)) and in assay [1] (1000 ppm(m)) was “+ (bacterial growth to an OD of approximately 1.8 or above)” in each case.
